Test results from PubChem BioAssay (NCI).
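Results reflect a 48-hour exposure of cells in 96-well plates to compound at five concentrations. TGI is the concentration that stops growth completely.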

Key:
Assay in all cases: inhibition of tumour cell growth, NCI panel, 48 h
[1] = tested on: OVCAR-5 ovarian
[2] = tested on: HCT-116 colon
[3] = tested on: SF-268 CNS
[4] = tested on: K-562 leukemia
[5] = tested on: SNB-75 CNS
[6] = tested on: PC-3 prostate
[7] = tested on: OVCAR-8 ovarian
[8] = tested on: UO-31 renal
[9] = tested on: CAKI-1 renal
[10] = tested on: NCI-H522 lung
[11] = tested on: HS 578T breast
[12] = tested on: DMS 114 small cell lung
[13] = tested on: T-47D breast
[14] = tested on: LOX IMVI melanoma
[15] = tested on: BT-549 breast
[16] = tested on: MCF7 breast
[17] = tested on: UACC-62 melanoma
[18] = tested on: A549 NSCLC
[19] = tested on: OVCAR-4 ovarian
[20] = tested on: HL-60(TB) leukemia
[21] = tested on: SNB-19 CNS
[22] = tested on: RXF 393 renal
[23] = tested on: OVCAR-3 ovarian
[24] = tested on: SF-295 CNS
[25] = tested on: NCI-H23 lung
[26] = tested on: SK-MEL-2 melanoma
[27] = tested on: M19-MEL melanoma
[28] = tested on: NCI/ADR-RES ovarian
[29] = tested on: SK-OV-3 ovarian
[30] = tested on: NCI-H460 lung
[31] = tested on: DLD-1 colon
[32] = tested on: 786-0 renal
[33] = tested on: COLO 205 colon
[34] = tested on: TK-10 renal
[35] = tested on: DU-145 prostate
[36] = tested on: NCI-H226 lung
[37] = tested on: HCT-15 colon
[38] = tested on: MDA-MB-231 breast
[39] = tested on: EKVX NSCLC
[40] = tested on: CCRF-CEM leukemia
[41] = tested on: HOP-18 NSCLC
[42] = tested on: MALME-3M melanoma
[43] = tested on: UACC-257 melanoma
[44] = tested on: M14 melanoma
[45] = tested on: SF-539 CNS
[46] = tested on: HOP-62 NSCLC
[47] = tested on: U251 CNS
[48] = tested on: LXFL 529 NSCLC
[49] = tested on: SR leukemia
[50] = tested on: SNB-78 CNS
[51] = tested on: HCC-2998 colon
[52] = tested on: SW-620 colon
[53] = tested on: A498 renal
[54] = tested on: MOLT-4 leukemia
[55] = tested on: SK-MEL-5 melanoma
[56] = tested on: KM12 colon
[57] = tested on: SN12C renal
[58] = tested on: HT29 colon
[59] = tested on: KM20L2 colon
[60] = tested on: MDA-MB-435
[61] = tested on: IGROV1 ovarian
[62] = tested on: RPMI-8226 leukemia
[63] = tested on: SK-MEL-28 melanoma
[64] = tested on: ACHN renal
[65] = tested on: HOP-92 NSCLC

CCc1nc2ccc(NCCN(C)C)c3c(=O)c4ccccc4n1c23
TGI [1]: 6.69 µM | TGI [2]: 6.26 µM | TGI [3]: 5.36 µM | TGI [4]: 22 µM | TGI [5]: 11.9 µM | TGI [6]: 6.44 µM | TGI [7]: 4.76 µM | TGI [8]: 10 µM | TGI [9]: 7.89 µM | TGI [10]: 4.89 µM | TGI [11]: 5.94 µM | TGI [12]: 14.8 µM | TGI [13]: 20.8 µM | TGI [14]: 2.63 µM | TGI [15]: 21.2 µM | TGI [16]: 21.1 µM | TGI [17]: 8.06 µM | TGI [18]: 4.76 µM | TGI [19]: 4.35 µM | TGI [20]: 8.68 µM | TGI [21]: 16.5 µM | TGI [22]: 6.03 µM | TGI [23]: 4.45 µM | TGI [24]: 5.04 µM | TGI [25]: 3.23 µM | TGI [26]: 6.98 µM | TGI [27]: 10.4 µM | TGI [28]: 3.38 µM | TGI [29]: 13.3 µM | TGI [30]: 3.07 µM | TGI [31]: 9.88 µM | TGI [32]: 7.66 µM | TGI [33]: 3.44 µM | TGI [34]: 12.2 µM | TGI [35]: 3.4 µM | TGI [36]: 4.34 µM | TGI [37]: 4.66 µM | TGI [38]: 2.36 µM | TGI [39]: 6.78 µM | TGI [40]: 15.1 µM | TGI [41]: 6.55 µM | TGI [42]: 7.47 µM | TGI [43]: 11.8 µM | TGI [44]: 4.68 µM | TGI [45]: 15 µM | TGI [46]: 5.12 µM | TGI [47]: 12.1 µM | TGI [48]: 13.9 µM | TGI [49]: 7.66 µM | TGI [50]: 19.3 µM | TGI [51]: 5.8 µM | TGI [52]: 4.99 µM | TGI [53]: 11 µM | TGI [54]: 6.28 µM | TGI [55]: 2.32 µM | TGI [56]: 6.42 µM | TGI [57]: 10.6 µM | TGI [58]: 5.08 µM | TGI [59]: 6.31 µM | TGI [60]: 2.4 µM | TGI [61]: 4.82 µM | TGI [62]: 7.78 µM | TGI [63]: 9.43 µM | TGI [64]: 6.03 µM | TGI [65]: 5.26 µM
